Experiments:
Bmi-1 = experiment: Sandwich ELISA Assay (Bmi-1 ELISA) in HT-1080 cells; type: cell-based
Outline: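 HT-1080 cells exposed to compound in 0.5% final DMSO for 40-48 h at 37 °C, then lysed. Bmi-1 was quantified by sandwich ELISA: mouse monoclonal capture, rabbit anti-Bmi-1 detection, HRP anti-rabbit and TMB. Read at OD450 (OD570 reference) against a recombinant GST-Bmi-1 standard curve (0-8000 pg/mL).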

Row | Compound | melting point | EC50 (Bmi-1)
1 | Nc1cc(Nc2ccc(C(F)(F)F)cc2)nc(-c2c(C(F)(F)F)nc3ccccn23)n1 [Cpd 66, 2-[2-(trifluoromethyl)imidazo[1,2-a]pyridin-3-yl]-N-[4-(trifluoromethyl)phenyl]pyrimidine-4,6-diamine] | 203 to 205 °C | 0.01 to 0.1 µM
2 | Nc1cc(Nc2ccc(OC(F)(F)F)cc2)nc(-c2c(C(F)(F)F)nc3ccccn23)n1 [Cpd 67, N-[4-(trifluoromethoxy)phenyl]-2-[2-(trifluoromethyl]imidazo[1,2-a]pyridin-3-yl]pyrimidine-4,6-diamine] | 199 to 202 °C | 0.1 to 3 µM
3 | Cc1nc2ccc(F)cn2c1-c1nc(N)cc(Nc2ccc(OC(F)F)cc2)n1 [Cpd 69, N-[4-(difluoromethoxy)phenyl]-2-(6-fluoro-2-methylimidazo[1,2-a]pyridin-3-yl)pyrimidine-4,6-diamine] | 136 to 138 °C | 0.01 to 0.1 µM
4 | Cc1nn(C)c(C)c1-c1nc(N)cc(Nc2ccc(C(F)(F)F)cc2)n1 [Cpd 70, N-[4-(trifluoromethyl)phenyl]-2-(1,3,5-trimethyl-1H-pyrazol-4-yl)pyrimidine-4,6-diamine] | 270 to 271 °C | 0.1 to 3 µM
5 | Cc1nc2ccc(F)cc2n1-c1nc(N)cc(Nc2ccc(OC(F)F)cc2)n1 [Cpd 72, N-[4-(difluoromethoxy)phenyl]-2-(6-fluoro-2-methyl-1H-benzimidazol-1-yl)pyrimidine-4,6-diamine] | 168 to 170 °C | 0.01 to 0.1 µM
6 | Nc1cc(Nc2ccc(OC(F)F)c(F)c2)nc(-c2c(C3CC3)nc3ccc(F)cn23)n1 [Cpd 75, 2-(2-cyclopropyl-6-fluoroimidazo[1,2-a]pyridin-3-yl)-N-[4-(difluoromethoxy)-3-fluorophenyl]pyrimidine-4,6-diamine] | 198 to 200 °C | 0.1 to 3 µM
7 | Cc1nc2ccc(F)cc2n1-c1nc(N)cc(Nc2ccc(OC(F)F)c(F)c2)n1 [Cpd 76, N-[4-(difluoromethoxy)-3-fluorophenyl]-2-(6-fluoro-2-methyl-1H-benzimidazol-1-yl)pyrimidine-4,6-diamine] | 182 to 183 °C | 0.01 to 0.1 µM
8 | CCc1nc2ccc(F)cc2n1-c1nc(N)cc(Nc2ccc(OC(F)F)c(F)c2)n1 [Cpd 77, N-[4-(difluoromethoxy)-3-fluorophenyl]-2-(2-ethyl-6-fluoro-1H-benzimidazol-1-yl)pyrimidine-4,6-diamine] | 156 to 158 °C | 0.01 to 0.1 µM
9 | Nc1cc(Nc2ccc(OC(F)F)c(F)c2)nc(-n2c(C3CC3)nc3ccc(F)cc32)n1 [Cpd 78, 2-(2-cyclopropyl-6-fluoro-1H-benzimidazol-1-yl)-N-[4-(difluoromethoxy)-3-fluorophenyl]pyrimidine-4,6-diamine] | 186 to 188 °C | 0.01 to 0.1 µM
10 | CCc1nc2ccc(F)cc2n1-c1nc(N)cc(Nc2ccc(C(F)(F)F)cc2)n1 [Cpd 81, 2-(2-ethyl-6-fluoro-1H-benzimidazol-1-yl)-N-[4-(trifluoromethyl)phenyl]pyrimidine-4,6-diamine] | 201 to 203 °C | 0.01 to 0.1 µM
11 | Cc1nc2ncc(F)cn2c1-c1nc(N)cc(Nc2ccc(C(F)(F)F)cc2)n1 [Cpd 100, 2-(6-fluoro-2-methylimidazo[1,2-a]pyrimidin-3-yl)-N-[4-(trifluoromethyl)phenyl]pyrimidine-4,6-diamine] | 256 to 258 °C | 0.1 to 3 µM
12 | Nc1cc(Nc2ccc(OC(F)F)cc2)nc(-n2c(C3CC3)nc3ccc(F)cc32)n1 [Cpd 143, 2-(2-cyclopropyl-6-fluoro-1H-benzimidazol-1-yl)-N-[4-(difluoromethoxy)phenyl]pyrimidine-4,6-diamine] | 175 to 177 °C | 0.001 to 0.01 µM
13 | CCc1nc2ccc(F)cc2n1-c1nc(N)cc(Nc2ccc(OC(F)F)cc2)n1 [Cpd 144, N-[4-(difluoromethoxy)phenyl]-2-(2-ethyl-6-fluoro-1H-benzimidazol-1-yl)pyrimidine-4,6-diamine] | 166 to 168 °C | 0.01 to 0.1 µM
14 | Nc1cc(Nc2ccc(OC(F)F)cc2)nc(-n2c(C(F)F)nc3ccc(F)cc32)n1 [Cpd 145, N-[4-(difluoromethoxy)phenyl]-2-[2-(difluoromethyl)-6-fluoro-1H-benzimidazol-1-yl]pyrimidine-4,6-diamine] | 114 to 115 °C | 0.001 to 0.01 µM
15 | Nc1cc(Nc2ccc(C(F)(F)F)cc2)nc(-n2c(C3CC3)nc3ccccc32)n1 [Cpd 149, 2-(2-cyclopropyl-1H-benzimidazol-1-yl)-N-[4-(trifluoromethyl)phenyl]pyrimidine-4,6-diamine] | 199 to 201 °C | 0.01 to 0.1 µM
16 | COCc1nc2ccccc2n1-c1nc(N)cc(Nc2ccc(C(F)(F)F)cc2)n1 [Cpd 150, 2-[2-(methoxymethyl)-1H-benzimidazol-1-yl]-N-[4-(trifluoromethyl]phenyl]pyrimidine-4,6-diamine] | 212 to 213 °C | 0.01 to 0.1 µM
17 | CC(C)c1nc2ccccc2n1-c1nc(N)cc(Nc2ccc(C(F)(F)F)cc2)n1 [Cpd 151, 2-[2-(propan-2-yl)-1H-benzimidazol-1-yl]-N-[4-(trifluoromethyl]phenyl]pyrimidine-4,6-diamine] | 216 to 218 °C | 0.01 to 0.1 µM

Row | Compound | melting point | EC50 (Bmi-1)
18 | Nc1cc(Nc2ccc(C(F)(F)F)cc2)nc(-n2c(C(F)F)nc3ccccc32)n1 [Cpd 152, 2-[2-(difluoromethyl)-1H-benzimidazol-1-yl]-N-[4-(trifluoromethyl)phenyl]pyrimidine-4,6-diamine] | 187 to 188 °C | 0.01 to 0.1 µM
19 | CCc1nc2ccccc2n1-c1nc(N)cc(Nc2ccc(C(F)(F)F)cc2)n1 [Cpd 153, 2-(2-ethyl-1H-benzimidazol-1-yl)-N-[4-(trifluoromethyl]phenyl]pyrimidine-4,6-diamine] | 183 to 185 °C | 0.01 to 0.1 µM
20 | Cc1cn2c(-c3nc(N)c(F)c(Nc4ccc(C(F)(F)F)cc4)n3)c(C)nc2c(C)n1 [Cpd 174, 5-fluoro-N-[4-(trifluoromethyl)phenyl]-2-(2,6,8-trimethylimidazo[1,2-a]pyrazin-3-yl)pyrimidine-4,6-diamine] | 166 to 168 °C | 0.1 to 3 µM
21 | Cc1cn2c(-c3nc(N)c(F)c(Nc4ccc(OC(F)F)cc4)n3)c(C)nc2c(C)n1 [Cpd 175, N-[4-(difluoromethoxy)phenyl]-5-fluoro-2-(2,6,8-trimethylimidazo[1,2-a]pyrazin-3-yl)pyrimidine-4,6-diamine] | 141 to 143 °C | 0.1 to 3 µM
22 | Cc1cn2c(-c3nc(N)c(F)c(Nc4ccc(OC(F)F)c(F)c4)n3)c(C)nc2c(C)n1 [Cpd 176, N-[4-(difluoromethoxy)-3-fluorophenyl]-5-fluoro-2-(2,6,8-trimethylimidazo[1,2-a]pyrazin-3-yl)pyrimidine-4,6-diamine] | 140 to 141 °C | 0.1 to 3 µM
23 | CCc1nn2ccc(F)cc2c1-c1nc(N)c(F)c(Nc2ccc(OC(F)F)cc2)n1 [Cpd 186, N-[4-(difluoromethoxy)phenyl]-2-(2-ethyl-5-fluoropyrazolo[1,5-a]pyridin-3-yl)-5-fluoropyrimidine-4,6-diamine] | 103 to 105 °C | 0.1 to 3 µM
24 | CCc1nn2ccc(F)cc2c1-c1nc(N)c(F)c(Nc2ccc(C(F)(F)F)cc2)n1 [Cpd 187, 2-(2-ethyl-5-fluoropyrazolo[1,5-a]pyridin-3-yl)-5-fluoro-N-[4-(trifluoromethyl)phenyl]pyrimidine-4,6-diamine] | 164 to 166 °C | 0.1 to 3 µM
25 | CCc1nn2ccc(F)cc2c1-c1nc(N)c(F)c(Nc2ccc(OC(F)F)c(F)c2)n1 [Cpd 188, N-[4-(difluoromethoxy)-3-fluorophenyl]-2-(2-ethyl-5-fluoropyrazolo[1,5-a]pyridin-3-yl)-5-fluoropyrimidine-4,6-diamine] | 150 to 152 °C | 0.1 to 3 µM
26 | COc1ccc(Nc2nc(-n3c(C4CC4)nc4ccccc43)nc(N)c2F)cc1 [Cpd 277, 2-(2-cyclopropyl-1H-benzimidazol-1-yl)-5-fluoro-N-(4-methoxyphenyl)pyrimidine-4,6-diamine] |  | ≤ 0.001 µM
27 | Nc1nc(-n2c(C3CC3)nc3ccccc32)nc(Nc2ccc(OC(F)(F)F)cc2)c1F [Cpd 278, 2-(2-cyclopropyl-1H-benzimidazol-1-yl)-5-fluoro-N-[4-(trifluoromethoxy)phenyl]pyrimidine-4,6-diamine] |  | 0.1 to 3 µM
28 | Nc1nc(-n2c(C3CC3)nc3ccccc32)nc(Nc2ccc(Cl)cc2)c1F [Cpd 279, N-(4-chlorophenyl)-2-(2-cyclopropyl-1H-benzimidazol-1-yl)-5-fluoropyrimidine-4,6-diamine] |  | 0.01 to 0.1 µM
29 | Nc1nc(-n2c(C3CC3)nc3ccccc32)nc(Nc2ccc(Cl)c(F)c2)c1F [Cpd 280, N-(4-chloro-3-fluorophenyl)-2-(2-cyclopropyl-1H-benzimidazol-1-yl)-5-fluoropyrimidine-4,6-diamine] |  | 0.01 to 0.1 µM
30 | Cc1ccc(Nc2nc(-n3c(C)nc4cc(F)ccc43)nc(N)c2F)cc1 [Cpd 281, 5-fluoro-2-(5-fluoro-2-methyl-1H-benzimidazol-1-yl)-N-(4-methylphenyl)pyrimidine-4,6-diamine] |  | 0.001 to 0.01 µM
31 | COc1ccc(Nc2nc(-n3c(C)nc4cc(F)ccc43)nc(N)c2F)cc1 [Cpd 282, 5-fluoro-2-(5-fluoro-2-methyl-1H-benzimidazol-1-yl)-N-(4-methoxyphenyl)pyrimidine-4,6-diamine] |  | 0.001 to 0.01 µM
32 | Cc1nc2cc(F)ccc2n1-c1nc(N)c(F)c(Nc2ccc(OC(F)(F)F)cc2)n1 [Cpd 283, 5-fluoro-2-(5-fluoro-2-methyl-1H-benzimidazol-1-yl)-N-[4-(trifluoromethoxy)phenyl]pyrimidine-4,6-diamine] |  | 0.1 to 3 µM
33 | Cc1nc2ccc(N)cc2n1-c1nc(N)c(F)c(Nc2ccc(C(F)(F)F)cc2)n1 [Cpd 284, 2-(6-amino-2-methyl-1H-benzimidazol-1-yl)-5-fluoro-N-[4-(trifluoromethyl)phenyl]pyrimidine-4,6-diamine] |  | 0.01 to 0.1 µM
